Experiments:
NRK-49F cells [1] = experiment: Serum (5% FBS)-stimulated activation and kinase phosphorylation in renal interstitial fibroblasts (immunoblot); type: cell-based, rat; conditions: 36 h, suramin 100 μM
Experimental: Cell Culture and Treatments. NRK-49F cells were cultured in Dulbecco's modified eagle's medium (DMEM) (Sigma-Aldrich, St. Louis, Mo.) containing 5% fetal bovine serum (FBS), 0.5% penicillin and streptomycin in an atmosphere of 5% CO2 and 95% air at 37° C. […] For TGF-β1 treatment, NRK-49F were starved for 24 h by incubation with 0.5% FBS containing DMEM and then exposed to TGF-β1 (0.5-2 ng/ml) for 24 h.
Immunoblot Analysis. Immunoblot analysis of NRK-49F cells and tissue samples were conducted as described previously. The densitometry analysis of immunoblot results was conducted by using NIH Image software (National Institutes of Health, Bethesda, Md.).

NRK-49F cells [2] = experiment: Delayed suramin treatment of TGF-β1-pretreated renal interstitial fibroblasts; type: cell-based, rat; conditions: TGF-β1 pretreatment 24 and 48 h, then suramin 100 μM for additional 24 and 48 h with TGF-β1
Experimental: At 48 h after pretreatment with TGF-β1, expression of α-SMA and fibronectin was induced, which is similar to the in-vivo situation.

obstructed kidney (UUO) = experiment: UUO model, delayed administration of suramin at day 3 of obstruction; type: in vivo, mouse
Experimental: Animals and the UUO Model. The UUO model used was described above. The abdominal cavity was exposed via a midline incision and the left ureter was isolated and ligated. Sham-operated animal received the same surgical procedures but without ureter ligation. To establish the time course of renal fibrogenesis in this model, four groups of mice (n=5) were killed at days 1, 3, 7, and 14, respectively, after left ureter ligation. […] Control mice were injected with the equal volume of vehicle (0.9% saline). At the end of the experiments, mice were killed and the kidneys were removed. One part of the kidneys was fixed in 10% phosphate-buffered formalin for histological studies. Another part was snap-frozen in liquid nitrogen and stored at −80° C. for protein extractions.

[3] = 20 mg/kg at day 3, kidney at day 10

Cc1ccc(C(=O)Nc2ccc(S(=O)(=O)O)c3cc(S(=O)(=O)O)cc(S(=O)(=O)O)c23)cc1NC(=O)c1cccc(NC(=O)Nc2cccc(C(=O)Nc3cc(C(=O)Nc4ccc(S(=O)(=O)O)c5cc(S(=O)(=O)O)cc(S(=O)(=O)O)c45)ccc3C)c2)c1 [Suramin]
phosphorylation of EGFR (NRK-49F cells [1]): complete inhibition
phosphorylation of ERK1/2 (NRK-49F cells [1]): complete inhibition
phosphorylation of PDGFR (NRK-49F cells [1]): complete inhibition
phosphorylation of STAT3 (NRK-49F cells [1]): complete inhibition
serum-induced fibronectin expression (NRK-49F cells [1]): complete blockade
serum-induced α-SMA expression (NRK-49F cells [1]): complete blockade
TGF-β1-induced fibronectin expression (NRK-49F cells [2]): suppressed further increase
TGF-β1-induced α-SMA expression (NRK-49F cells [2]): suppressed further increase
EGFR phosphorylation (obstructed kidney (UUO); [3]): significant reduction
PDGFR phosphorylation (obstructed kidney (UUO); [3]): significant reduction
Smad3 phosphorylation (obstructed kidney (UUO); [3]): largely blocked
expression of total EGFR (obstructed kidney (UUO); [3]): not affected
expression of total PDGFR (obstructed kidney (UUO); [3]): not affected
phosphorylation of ERK1/2 (obstructed kidney (UUO); [3]): not further increased
phosphorylation of STAT3 (obstructed kidney (UUO); [3]): not further increased
total protein level of ERK1/2 (obstructed kidney (UUO); [3]): did not alter
total protein level of STAT3 (obstructed kidney (UUO); [3]): did not alter
α-SMA expression (obstructed kidney (UUO); 20 mg/kg at day 3, both 7- and 14-day treatment groups): reduced
Masson trichrome-positive areas (obstructed kidney (UUO); 20 mg/kg i.p. single dose at day 3, kidney at day 10): reduced on day 10 to a level similar to that in the kidney at 3 days of obstruction

Source: US9572787B2, “Inhibition of renal fibrosis” (Rhode Island Hospital, priority 2011, dated 2017)
